From ChEMBL document CHEMBL3988442, “University of Dundee, Small-Polar-MMV Screening Library” (2021)

target: ClpP1P2 (Mycobacterium tuberculosis (strain ATCC 25618 / H37Rv), UniProt P9WPC3+P9WPC5); test: in vitro assay to detect presence of AMC directly proportional to the activity of ClpP1P2. GHDDI collaboration.; assay type: functional

Structure (SMILES)	IC50 [µM]
COc1cccc(-c2cc(NCCN(C)C)nc3[nH]ccc23)n1	> 100
CCNCCOc1ccc(-c2cc(N)nc3[nH]ccc23)cc1	> 100
N#Cc1ccnc(NCc2cc3n(n2)CCCN(C(=O)C2CCC2)C3)c1	> 100
O=C(c1nc(=O)[nH]c2ccccc12)N1CCCC(CC2CC2)(C(=O)O)C1 (stereo unspecified)	> 100
Nc1cccc(-c2cccc3ccnn23)n1	> 100
Cc1ccc2nccc(C(=O)N3CCOC(CCN(C)C)C3)c2c1 (stereo unspecified)	> 100
CN(C)C1CCN(c2cc(-c3ccccc3)nc3ccnn23)C1 (stereo unspecified)	> 100
CN(C)CCC1CN(C(=O)c2cccc3c2OCC3)CCO1 (stereo unspecified)	> 100
Cc1ccc2[nH]c(=O)cc(C(=O)N[C@@H]3C[C@@H](CO)N(C)C3)c2c1	> 100
Cn1ccc2c(-c3nccc(N)n3)ccnc21	> 100
CC(C)=CCN1CCc2onc(-c3ccc(F)c(F)c3)c2C1	> 100
Cc1cc(-c2cc(-c3cc(CC(=O)O)cs3)nc(N)c2C#N)oc1C	> 100
CCn1nc(NC(=O)Cn2ccc(C(C)=O)n2)c2ccccc21	> 100
CCNc1ccnc(-c2ccnc3c2ccn3C)n1	> 100
COCCCN1C(=O)CC[C@H]2CN(c3cnc4ccccc4n3)CC[C@H]21	> 100
N#Cc1c(N)nc2c(c1C1CCOC1)CCc1cc(O)ccc1-2 (stereo unspecified)	> 100
O=C(c1cncc(NCC2COc3ccccc3C2)n1)N1CCCC1 (stereo unspecified)	> 100
Cc1ccc(-c2cc(-c3c(C)nn(CCO)c3C)c(C#N)c(N)n2)cc1	> 100
N#Cc1cccc(N2CCCC3(CCC(=O)N(C4CCCC4)C3)C2)n1 (stereo unspecified)	> 100
Cc1ccc(C#N)c(N2CCC3(CCC(=O)N(CC(N)=O)C3)CC2)n1	> 100
CC(C)Cc1cc(-c2cc(-c3ccc[nH]3)nc(N)c2C#N)n[nH]1	> 100
CC(C)SCCNC(=O)c1cccc2ccnn12	> 100
Cc1nc(N2C[C@H]3CC[C@@H](C2)N3)nc2cc(S(C)(=O)=O)ccc12	> 100
CC(C)c1ncc(-c2cc(C3CCC3)nc(N)c2C#N)cn1	> 100
O=C1CN(c2cc(-c3ccccc3F)nc3ccnn23)CCCN1	> 100
CN(C)c1nc2c(c(NCc3nnc4n3CCCCC4)n1)CCNC2	> 100

Structure (SMILES)	IC50 [µM]
Cc1ccc2cc(CN(C)Cc3ccccn3)c(=O)[nH]c2c1	> 100
c1ccc(CCCN2CCCC(Nc3cnc4ccccc4n3)C2)cc1 (stereo unspecified)	> 100
CCCNCc1ccc(-c2cc(N)nc3[nH]ccc23)cc1	> 100
CCOC(=O)C1(Cc2cccc(OC)c2)CCN(Cc2ncc[nH]2)CC1	> 100
CC(c1ccco1)N(C)Cc1cc2cc3c(cc2[nH]c1=O)OCO3 (stereo unspecified)	> 100
O=C(O)C1(O)CCN(c2ccc3cccc(Cl)c3n2)CC1	> 100
CCC1(CO)CCCN(c2ncccc2C#N)C1 (stereo unspecified)	> 100
O=C(c1cncc(N2CCC(O)(CO)CC2)n1)N1CCCC1	> 100
N#Cc1c(C2CC2)cc(-c2ccc(O)cc2)nc1N	> 100
CCOc1ccc2[nH]c(=O)c(CN3CCC(O)CC3)cc2c1	> 100
N#Cc1ccnc(N2CCC(c3nccn3Cc3cscn3)CC2)c1	> 100
Cc1cc(C)c2cc(CNCC3CCCO3)c3nn(C)c(=O)n3c2c1 (stereo unspecified)	> 100
CC(=O)N1CCC(c2cc(C(F)(F)F)n3ccnc3n2)CC1	> 100
Cc1nc(C2CCCN2CC(=O)Nc2c(C)n[nH]c2C)no1 (stereo unspecified)	> 100
CCn1nc2c(cc1=O)CN(Cc1nc(C)c(C)o1)CC2	> 100
COCc1nc(C(=O)N2CCCC(n3nc(C)cc3C)C2)cs1 (stereo unspecified)	> 100
Cc1nc(C)n(CC2CN(Cc3cccc4ccccc34)CCO2)n1 (stereo unspecified)	> 100
CC(C)n1nc2c(cc1=O)CN(Cc1nc3ccccc3o1)CC2	> 100
CC(C(=O)N1CCCN(c2ccccc2C#N)CC1)n1cccn1 (stereo unspecified)	> 100
CSc1nccn1-c1ccc(C(=O)NCC2CC2)cc1	> 100
Cc1cnn(CC2CN(Cc3csc(C4CCCC4)n3)CCO2)c1 (stereo unspecified)	> 100
CN(CC(=O)N1CCC(COc2ccccc2)CC1)c1cnccn1	> 100
CCOC1CCN(C(=O)CN(C)c2cnccn2)CC1	> 100
CN(Cc1ccccc1C#N)C1CCN(CCc2ccccn2)CC1	> 100
O=C(N1CCCC(n2cncn2)C1)C1(c2ccc(Cl)cc2)CCC1 (stereo unspecified)	> 100
Cc1ccc(NC2CCN(C(=O)CCc3ccncc3)CC2)nn1	> 100

Structure (SMILES)	IC50 [µM]
CN(C)c1cc(CNC(=O)Nc2ccc(N3CCCC3)nc2)ccn1	> 100
CC(C)c1nnc2n1CCN(C(=O)Cc1csc(C(C)(C)C)n1)C2	> 100
Cc1ccc(NC2CCN(C(=O)c3ccoc3C)CC2)nn1	> 100
Cn1cc(Cl)cc1C(=O)N1CCCN(Cc2ccccc2)CC1	> 100
Cc1ccccc1-c1noc(CN2CCc3cncnc3C2)n1	> 100
Nc1nccnc1C(=O)NCCCNc1ccc(C(F)(F)F)cn1	> 100
Cc1noc2ncc(C(=O)NCC3CCS(=O)(=O)C3)cc12 (stereo unspecified)	> 100
CCN(CC1CCOC1)C(=O)c1cnc2onc(C)c2c1 (stereo unspecified)	> 100
CC(Cn1ccnc1)NC(=O)NCCc1cccs1 (stereo unspecified)	> 100
c1coc(-c2noc(CN3CCc4cncnc4C3)n2)c1	> 100
c1ncc2c(n1)CN(Cc1nc(-c3ccoc3)no1)CC2	> 100
COc1ccc(-c2nc(CN3CCc4cncnc4C3)no2)cc1	> 100
CN(C)C1CCN(C(=O)Cc2csc(-c3ncccn3)n2)CC1	> 100
N#Cc1cccnc1N1CCC(C2CCCCCN2C(=O)C2CC2)CC1 (stereo unspecified)	> 100
CC(=O)N1CCCCCC1C1CCN(c2ncccc2C#N)CC1 (stereo unspecified)	> 100
O=C(CCc1ccc(-c2ccccc2)[nH]1)N1CCCC(n2ccnc2)C1 (stereo unspecified)	> 100
N#Cc1cccnc1N1CCC(C2CCCCCN2C(N)=O)CC1 (stereo unspecified)	> 100
Cc1cnn(CCNCc2csc(-c3ccsc3)n2)c1	> 100
Cc1nc(-c2ccsc2)ccc1C(=O)NCC(C)N1CCOCC1 (stereo unspecified)	> 100
Cc1nc(-c2ccsc2)ccc1C(=O)NCCCN1CCOCC1	> 100
CCNc1cc2c(nn1)CCN(C(=O)c1nccnc1N)C2	> 100
CN(Cc1ccsc1)C(=O)Nc1ccc(N2CCCC2)nc1	> 100
CN(Cc1ccsc1)C(=O)Nc1ccc(N(C)C)nc1	> 100
Cc1cc(C)n(CC2CN(c3cnc4ccccc4n3)CCO2)n1 (stereo unspecified)	> 100
c1ccc2nc(N3CCOC(Cn4cccn4)C3)cnc2c1 (stereo unspecified)	> 100
c1ccc2nc(N3CCOC(Cn4cncn4)C3)cnc2c1 (stereo unspecified)	> 100

Structure (SMILES)	IC50 [µM]
N#Cc1ccccc1N1CCCN(C(=O)CCc2ccsc2)CC1	> 100
COc1c(C2CCCN2Cc2noc(C)n2)c(C)nn1C (stereo unspecified)	> 100
Cc1ccccc1OCCN1CCn2c(C)nnc2C1	> 100
CCc1n[nH]c(C2CN(CCCS(C)(=O)=O)CCO2)n1 (stereo unspecified)	> 100
CCOc1cc(/C=C/c2ncc(C(=O)O)s2)cc(Br)c1OC	> 100
Cn1cc(CCC(=O)N2CCCN(c3ncccc3C#N)CC2)cn1	> 100
N#Cc1cccnc1N1CCCN(C(=O)CCn2cccn2)CC1	> 100
N#Cc1cccnc1N1CCCN(C(=O)CCn2cncn2)CC1	> 100
COc1ncccc1CNC(=O)c1cc(C)on1	> 100
CC(Cn1cccn1)NC(=O)N1CCN(Cc2ccsc2)CC1 (stereo unspecified)	> 100
c1ccc(-n2cc(CN3CCCC3Cn3cccn3)nn2)cc1 (stereo unspecified)	> 100
CCc1nc(C2CCCN2C(=O)CCCn2cncn2)no1 (stereo unspecified)	> 100
COc1ccc(-c2nnc(CNCCn3cc(C)cn3)o2)cc1	> 100
CC(C)c1nc(CN(C)C2CCN(CCc3ccncc3)C2)no1 (stereo unspecified)	> 100
Cc1nc(CN2CCCN(C(=O)c3sccc3C#N)CC2)cs1	> 100
CCCn1[nH]cc/c1=N\C(=O)CN1CCc2c(nc(C3CC3)n2C)C1	> 100
Cc1nc(CN2CCN(C(=O)c3sccc3C)CC2)cs1	> 100
CN(Cc1cccc(C(N)=O)c1)CC1CCCN1c1cccnn1 (stereo unspecified)	> 100
CCCn1[nH]cc/c1=N\C(=O)CN1CCc2cnc(C(C)C)nc2C1	> 100
CC(Cn1cccn1)NC(=O)NCc1ccoc1 (stereo unspecified)	> 100
Cc1cc(CN2CCN(C(=O)c3sccc3C3CC3)CC2)no1	> 100
COc1ccc(C(=O)N(C)Cc2nnc3ccccn23)c(OC)c1OC	> 100
Cc1ccc(CNC(=O)NC(C)Cn2cccn2)cn1 (stereo unspecified)	> 100
Cc1ccoc1C(=O)NC1CCN(C(=O)Nc2ccccn2)CC1	> 100
Cc1nc(CN2CCOC(Cn3cccn3)C2)nc2ccccc12 (stereo unspecified)	> 100
Nc1nc(CN2CCOC(Cn3cccn3)C2)nc2ccccc12 (stereo unspecified)	> 100

Structure (SMILES)	IC50 [µM]
CCn1ccnc1CN1CCN(CC(O)c2cccc(F)c2)CC1 (stereo unspecified)	> 100
Cc1cnn(CC2CN(Cc3nc4ccccc4o3)CCO2)c1 (stereo unspecified)	> 100
Cc1cnn(CC2CN(Cc3nc(C)c4ccccc4n3)CCO2)c1 (stereo unspecified)	> 100
Cc1ccc(C(=O)NC2CCN(C(=O)NCc3ccccn3)CC2)o1	> 100
Cn1ccnc1CN1CCN(CC(O)c2cc(F)ccc2F)CC1 (stereo unspecified)	> 100
CC(C)c1nc2c(n1C)CCN(CC(=O)Nc1cccnc1)C2	> 100
CC(C)Oc1ccc(C(=O)N2CCC(Nc3cccnn3)CC2)cn1	> 100
Cc1cnn(CC2CCCCN2C(=O)c2nccnc2N)c1 (stereo unspecified)	> 100
Cc1cnn(CC2CCCN2C(=O)c2nccnc2N)c1 (stereo unspecified)	> 100
Cc1cnn(CC2CN(Cc3nc4cccnc4[nH]3)CCO2)c1 (stereo unspecified)	> 100
CN(Cc1nnc(-c2ccco2)o1)C1CCCN(c2cccnn2)C1 (stereo unspecified)	> 100
c1cnnc(N2CCCC(NCc3nnc(-c4ccco4)o3)C2)c1 (stereo unspecified)	> 100
Cc1ccc(S(=O)(=O)N2CCOc3ccccc32)cc1C(N)=O	> 100
Cn1cnc2c1CCN(Cc1csc(-c3ccsc3)n1)C2	> 100
Cc1noc(C2CCN(C(=O)CCc3nccs3)CC2)n1	> 100
CCN(CC1CCOC1)C(=O)Nc1ccc(OC)nc1 (stereo unspecified)	> 100
COc1cccc(-n2nnc(C(=O)N3CCN(C)CC3C)c2C)c1 (stereo unspecified)	> 100
CCOc1ccc(Cl)c(C(=O)N(C)C)n1	> 100
Cc1cc(C)n(CC2CCCN2CCCS(N)(=O)=O)n1 (stereo unspecified)	> 100
Cn1cc(CN2CCCN(C(=O)c3cn4ccccc4n3)CC2)cn1	> 100
CN(C)CC1CN(c2cnc3ccccc3n2)CCO1 (stereo unspecified)	> 100
CCN(Cc1nc2c(cnn2C)c(=O)[nH]1)Cc1cccs1	> 100
